Results published in patent US11939314B2, “Quinolin-2-one derivatives” (MERCK PATENT GMBH, priority 2016, dated 2024).
One block for each compound: values may come before it.

Columns and labels:
c-Kit(V654A) = target: T1, c-Kit(V654A) (Homo sapiens, UniProt P10721, V654A); assay: c-Kit(V654A) assay; format: biochemical; conditions: recombinant human c-Kit aa 544-end, 200 μM ATP, 1.4E-06 means 1.4×10^−6, read-out: Inhibition (IC50) of c-KIT (V654A)
T1 construct: amino acids 544-end containing the V654A mutation; GST (N)
T1 sequence (P10721 544-976 V654A): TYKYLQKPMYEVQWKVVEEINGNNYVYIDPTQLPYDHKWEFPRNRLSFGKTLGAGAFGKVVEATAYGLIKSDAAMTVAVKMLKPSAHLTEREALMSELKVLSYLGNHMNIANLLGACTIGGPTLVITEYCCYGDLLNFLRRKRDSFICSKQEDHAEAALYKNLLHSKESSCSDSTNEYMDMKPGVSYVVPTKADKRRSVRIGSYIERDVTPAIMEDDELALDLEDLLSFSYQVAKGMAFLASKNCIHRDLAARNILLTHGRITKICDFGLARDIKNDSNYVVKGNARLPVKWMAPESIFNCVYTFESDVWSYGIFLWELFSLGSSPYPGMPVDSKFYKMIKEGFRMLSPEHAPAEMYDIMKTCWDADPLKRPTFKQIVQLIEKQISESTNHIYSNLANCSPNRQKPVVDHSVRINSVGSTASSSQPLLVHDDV
Procedure, shortened: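 Radiometric filter-binding read-out: substrate 33P incorporation counted by scintillation after P30 filtermat washes in 75 mM phosphoric acid and methanol. Enzyme: N-GST recombinant human c-Kit aa 544-end carrying V654A.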

PDGFRalpha(V561D) = target: T2, PDGFRalpha(V561D) (Homo sapiens, UniProt P16234, V561D); assay: PDGFRalpha(V561D) assay; format: biochemical; conditions: recombinant human PDGFRalpha aa 550-end, 200 μM ATP, 1.4E-06 means 1.4×10^−6, read-out: Inhibition (IC50) of PDGFRα (V561D)
T2 construct: recombinant human PDGFRalpha, amino acids 550end containing the V561 D mutation; 6His (N)
T2 sequence (P16234 550-1089 V561D): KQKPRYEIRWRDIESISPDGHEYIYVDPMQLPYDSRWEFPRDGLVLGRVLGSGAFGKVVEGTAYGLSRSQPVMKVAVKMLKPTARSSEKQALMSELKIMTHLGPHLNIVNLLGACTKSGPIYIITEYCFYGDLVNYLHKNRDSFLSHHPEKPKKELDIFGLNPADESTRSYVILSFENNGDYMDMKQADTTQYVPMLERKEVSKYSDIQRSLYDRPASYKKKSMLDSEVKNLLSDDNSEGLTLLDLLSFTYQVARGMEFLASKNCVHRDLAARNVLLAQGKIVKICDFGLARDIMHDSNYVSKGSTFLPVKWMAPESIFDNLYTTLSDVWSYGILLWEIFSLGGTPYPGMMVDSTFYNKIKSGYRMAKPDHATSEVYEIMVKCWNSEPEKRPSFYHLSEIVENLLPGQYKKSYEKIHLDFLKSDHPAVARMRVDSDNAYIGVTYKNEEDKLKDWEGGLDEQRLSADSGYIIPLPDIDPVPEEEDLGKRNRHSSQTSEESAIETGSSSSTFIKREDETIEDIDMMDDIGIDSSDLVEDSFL
Procedure, shortened: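 Radiometric filter-binding assay: substrate phosphorylation by recombinant N-His-tagged human PDGFRα 550-end V561D was quenched with 3% phosphoric acid after 40 min at room temperature, then counted.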

Compound: CN1CCN(C(=O)c2ccc(-n3cc(-c4cc5cc(F)ccc5[nH]c4=O)nn3)cc2)CCC1=O [A110, 6-fluoro-3-{1-[4-(4-methyl-5-oxo-[1,4]diazepane-1-carbonyl)-phenyl]-1H-[1,2,3]triazol-4-yl}-1H-quinolin-2-one]
IC50 (c-Kit(V654A)): 0.039 µM
IC50 (PDGFRalpha(V561D)): 0.028 µM

Compound: O=C(c1ccc(-n2cc(-c3cc4ccc(F)cc4[nH]c3=O)nn2)cc1)N1CCNCC1 [A117, 7-fluoro-3-{1-[4-(piperazine-1-carbonyl)-phenyl]-1H-[1,2,3]triazol-4-yl}-1H-quinolin-2-one]
IC50 (c-Kit(V654A)): 0.028 µM
IC50 (PDGFRalpha(V561D)): 0.011 µM

Compound: O=C(c1ccc(-n2cc(-c3cc4c(F)cccc4[nH]c3=O)nn2)cc1)N1CCNCC1 [A119, 5-fluoro-3-{1-[4-(piperazine-1-carbonyl)-phenyl]-1H-[1,2,3]triazol-4-yl}-1H-quinolin-2-one]
IC50 (c-Kit(V654A)): 0.009 µM
IC50 (PDGFRalpha(V561D)): 0.046 µM

Compound: O=C(c1ccc(-n2cc(-c3cc4cccc(F)c4[nH]c3=O)nn2)cc1)N1CCNCC1 [A120, 8-fluoro-3-{1-[4-(piperazine-1-carbonyl)-phenyl]-1H-[1,2,3]triazol-4-yl}-1H-quinolin-2-one]
IC50 (c-Kit(V654A)): 0.28 µM
IC50 (PDGFRalpha(V561D)): 0.23 µM

Compound: O=C(c1ccc(-n2cc(-c3cc4cccnc4[nH]c3=O)nn2)cc1)N1CCNCC1 [A121, 3-{1-[4-(piperazine-1-carbonyl)-phenyl]-1H-[1,2,3]triazol-4-yl}-1H-[1,8]naphthyridin-2-one]
IC50 (c-Kit(V654A)): 0.04 µM
IC50 (PDGFRalpha(V561D)): 0.016 µM

Compound: O=C(c1ccc(-n2cc(-c3cc4cc(F)cnc4[nH]c3=O)nn2)cc1)N1CCNCC1 [A122, 6-fluoro-3-{1-[4-(piperazine-1-carbonyl)-phenyl]-1H-[1,2,3]triazol-4-yl}-1H-[1,8]naphthyridin-2-one]
IC50 (c-Kit(V654A)): 0.073 µM
IC50 (PDGFRalpha(V561D)): 0.005 µM

Compound: O=C(c1ccc(-n2cc(-c3cc4cc(Cl)ccc4[nH]c3=O)nn2)cc1)N1CCNCC1 [A123, 6-chloro-3-{1-[4-(piperazine-1-carbonyl)-phenyl]-1H-[1,2,3]triazol-4-yl}-1H-quinolin-2-one]
IC50 (c-Kit(V654A)): 0.005 µM
IC50 (PDGFRalpha(V561D)): 0.001 µM

Compound: O=c1[nH]c2ncc(F)cc2cc1-c1cn(-c2ccc(N3CCCNCC3)cc2)nn1 [A124, 3-[1-(4-[1,4]diazepan-1-yl-phenyl)-1H-[1,2,3]triazol-4-yl]-6-fluoro-1H-[1,8]naphthyridin-2-one]
IC50 (c-Kit(V654A)): 0.066 µM
IC50 (PDGFRalpha(V561D)): 0.009 µM

Compound: O=C(c1cccc(-n2cc(-c3cc4cc(F)ccc4[nH]c3=O)nn2)c1)N1CCNCC1 [A125, 6-fluoro-3-{1-[3-(piperazine-1-carbonyl)-phenyl]-1H-[1,2,3]triazol-4-yl}-1H-quinolin-2-one]
IC50 (c-Kit(V654A)): 0.034 µM
IC50 (PDGFRalpha(V561D)): 0.006 µM

Compound: O=C(c1ccc(-n2cc(-c3cc4ccc(Cl)cc4[nH]c3=O)nn2)cc1)N1CCNCC1 [A126, 7-chloro-3-{1-[4-(piperazine-1-carbonyl)-phenyl]-1H-[1,2,3]triazol-4-yl}-1H-quinolin-2-one]
IC50 (c-Kit(V654A)): 0.019 µM
IC50 (PDGFRalpha(V561D)): 0.042 µM

Compound: O=C(c1ccc(-n2cc(-c3cc4c(F)c(F)ccc4[nH]c3=O)nn2)cc1)N1CCNCC1 [A127, 5,6-difluoro-3-{1-[4-(piperazine-1-carbonyl)-phenyl]-1H-[1,2,3]triazol-4-yl}-1H-quinolin-2-one]
IC50 (c-Kit(V654A)): 0.038 µM
IC50 (PDGFRalpha(V561D)): 0.079 µM

Compound: O=c1[nH]c2ccc(F)cc2cc1-c1cn(-c2ccc(S(=O)(=O)N3CCNCC3)cc2)nn1 [A129, 6-fluoro-3-{1-[4-(piperazine-1-sulfonyl)-phenyl]-1H-[1,2,3]triazol-4-yl}-1H-quinolin-2-one]
IC50 (c-Kit(V654A)): 0.013 µM
IC50 (PDGFRalpha(V561D)): 0.048 µM

Compound: O=c1[nH]c2ccc(F)cc2cc1-c1cn(-c2ccc(OCCCN3CCNCC3)cc2)nn1 [A131, 6-fluoro-3-{1-[4-(3-piperazin-1-yl-propoxy)-phenyl]-1H-[1,2,3]triazol-4-yl}-1H-quinolin-2-one]
IC50 (c-Kit(V654A)): 0.0097 µM
IC50 (PDGFRalpha(V561D)): 0.038 µM

Compound: Cc1ccc2[nH]c(=O)c(-c3cn(-c4ccc(C(=O)N5CCNCC5)cc4)nn3)cc2c1 [A137, 6-methyl-3-{1-[4-(piperazine-1-carbonyl)-phenyl]-1H-[1,2,3]triazol-4-yl}-1H-quinolin-2-one]
IC50 (c-Kit(V654A)): 0.04 µM
IC50 (PDGFRalpha(V561D)): 0.042 µM

Compound: O=C(Cn1ccc2cc(-n3cc(-c4cc5c(F)cc(F)cc5[nH]c4=O)nn3)ccc21)N1CCNCC1 [A138, 5,7-difluoro-3-{1-[1-(2-oxo-2-piperazin-1-yl-ethyl)-1H-indol-5-yl]-1H-[1,2,3]triazol-4-yl}-1H-quinolin-2-one]
IC50 (c-Kit(V654A)): 0.011 µM
IC50 (PDGFRalpha(V561D)): 0.086 µM

The next lines start with the values.

IC50 (c-Kit(V654A)): 0.012 µM
IC50 (PDGFRalpha(V561D)): 0.0034 µM
Compound: COCC1CCN(C(=O)c2ccc(-n3cc(-c4cc5cc(F)c(F)cc5[nH]c4=O)nn3)cc2)C1 (stereo not shown) [A109, 6,7-difluoro-3-{1-[4-(3-methoxymethyl-pyrrolidine-1-carbonyl)-phenyl]-1H-[1,2,3]triazol-4-yl}-1H-quinolin-2-one]

IC50 (c-Kit(V654A)): 0.0077 µM
IC50 (PDGFRalpha(V561D)): 0.018 µM
Compound: CO[C@@H]1CCN(C(=O)c2ccc(-n3cc(-c4cc5cc(F)ccc5[nH]c4=O)nn3)cc2)C1 [A111, 6-fluoro-3-{1-[4-((R)-3-methoxy-pyrrolidine-1-carbonyl)-phenyl]-1H-[1,2,3]triazol-4-yl}-1H-quinolin-2-one]

IC50 (c-Kit(V654A)): 0.016 µM
IC50 (PDGFRalpha(V561D)): 0.064 µM
Compound: CO[C@H]1CCN(C(=O)c2ccc(-n3cc(-c4cc5cc(F)ccc5[nH]c4=O)nn3)cc2)C1 [A112, 6-fluoro-3-{1-[4-((S)-3-methoxy-pyrrolidine-1-carbonyl)-phenyl]-1H-[1,2,3]triazol-4-yl}-1H-quinolin-2-one]

IC50 (c-Kit(V654A)): 0.0086 µM
IC50 (PDGFRalpha(V561D)): 0.036 µM
Compound: CO[C@@H]1CCN(C(=O)c2ccc(-n3cc(-c4cc5cc(F)c(F)cc5[nH]c4=O)nn3)cc2)C1 [A113, 6,7-difluoro-3-{1-[4-((R)-3-methoxy-pyrrolidine-1-carbonyl)-phenyl]-1H-[1,2,3]triazol-4-yl}-1H-quinolin-2-one]

IC50 (c-Kit(V654A)): 0.02 µM
IC50 (PDGFRalpha(V561D)): 0.14 µM
Compound: CO[C@H]1CCN(C(=O)c2ccc(-n3cc(-c4cc5cc(F)c(F)cc5[nH]c4=O)nn3)cc2)C1 [A114, 6,7-difluoro-3-{1-[4-((S)-3-methoxy-pyrrolidine-1-carbonyl)-phenyl]-1H-[1,2,3]triazol-4-yl}-1H-quinolin-2-one]

IC50 (c-Kit(V654A)): 0.18 µM
IC50 (PDGFRalpha(V561D)): 1.4 µM
Compound: CN(C)CCc1ccc(-n2cc(-c3cc4cc(F)c(F)cc4[nH]c3=O)nn2)cc1 [A115, 3-{1-[4-(2-dimethylamino-ethyl)-phenyl]-1H-[1,2,3]triazol-4-yl}-6,7-difluoro-1H-quinolin-2-one]

IC50 (c-Kit(V654A)): 0.16 µM
IC50 (PDGFRalpha(V561D)): 1.5 µM
Compound: O=c1[nH]c2cc(F)c(F)cc2cc1-c1cn(-c2ccc(CCN3CCCC3)cc2)nn1 [A115a, 6,7-difluoro-3-{1-[4-(2-pyrrolidin-1-yl-ethyl)-phenyl]-1H-[1,2,3]triazol-4-yl}-1H-quinolin-2-one]

IC50 (c-Kit(V654A)): 0.016 µM
IC50 (PDGFRalpha(V561D)): 0.005 µM
Compound: CN1CCN(C(=O)c2ccc(-n3cc(-c4cc5ccc(F)cc5[nH]c4=O)nn3)cc2)CC1 [A118, 7-fluoro-3-{1-[4-(4-methyl-piperazine-1-carbonyl)-phenyl]-1H-[1,2,3]triazol-4-yl}-1H-quinolin-2-one]

IC50 (c-Kit(V654A)): 0.041 µM
IC50 (PDGFRalpha(V561D)): 0.0097 µM
Compound: O=C(c1ccc(-n2cc(-c3cc4cc(F)c(F)cc4[nH]c3=O)nn2)cc1)N1CCNCC1 [A128, 6,7-difluoro-3-{1-[4-(piperazine-1-carbonyl)-phenyl]-1H-[1,2,3]triazol-4-yl}-1H-quinolin-2-one]

IC50 (c-Kit(V654A)): 0.035 µM
IC50 (PDGFRalpha(V561D)): 0.17 µM
Compound: O=c1[nH]c2cc(F)c(F)cc2cc1-c1cn(-c2ccc(OCCN3CCNCC3)cc2)nn1 [A130, 6,7-difluoro-3-{1-[4-(2-piperazin-1-yl-ethoxy)-phenyl]-1H-[1,2,3]triazol-4-yl}-1H-quinolin-2-one]

IC50 (c-Kit(V654A)): 0.0075 µM
IC50 (PDGFRalpha(V561D)): 0.0008 µM
Compound: O=C(c1ccc(-n2cc(-c3cc4cc(F)ccc4[nH]c3=O)nn2)cc1)C1CCNCC1 [A132, 6-fluoro-3-{1-[4-(piperidine-4-carbonyl)-phenyl]-1H-[1,2,3]triazol-4-yl}-1H-quinolin-2-one]

IC50 (c-Kit(V654A)): 0.011 µM
IC50 (PDGFRalpha(V561D)): 0.0064 µM
Compound: O=c1[nH]c2ccc(F)cc2cc1-c1cn(-c2ccc(OCCC3CCNCC3)cc2)nn1 [A133, 6-fluoro-3-{1-[4-(2-piperidin-4-yl-ethoxy)-phenyl]-1H-[1,2,3]triazol-4-yl}-1H-quinolin-2-one]

IC50 (c-Kit(V654A)): 0.017 µM
IC50 (PDGFRalpha(V561D)): 0.016 µM
Compound: O=c1[nH]c2cc(F)c(F)cc2cc1-c1cn(-c2ccc(OCCC3CCNCC3)cc2)nn1 [A134, 6,7-difluoro-3-{1-[4-(2-piperidin-4-yl-ethoxy)-phenyl]-1H-[1,2,3]triazol-4-yl}-1H-quinolin-2-one]

IC50 (c-Kit(V654A)): 0.18 µM
IC50 (PDGFRalpha(V561D)): 0.31 µM
Compound: O=c1[nH]c2cc(F)c(F)cc2cc1-c1cn(-c2ccc(OCCCN3CCNCC3)cc2)nn1 [A135, 6,7-difluoro-3-{1-[4-(3-piperazin-1-yl-propoxy)-phenyl]-1H-[1,2,3]triazol-4-yl}-1H-quinolin-2-one]

IC50 (c-Kit(V654A)): 0.015 µM
IC50 (PDGFRalpha(V561D)): 0.018 µM
Compound: O=C(c1ccc(-n2cc(-c3cc4cc(F)c(F)cc4[nH]c3=O)nn2)cc1)C1CCNCC1 [A136, 6,7-difluoro-3-{1-[4-(piperidine-4-carbonyl)-phenyl]-1H-[1,2,3]triazol-4-yl}-1H-quinolin-2-one]

IC50 (c-Kit(V654A)): 0.012 µM
IC50 (PDGFRalpha(V561D)): 3.8 µM
Compound: O=C(Cn1ccc2cc(-n3cc(-c4cc5cc(F)c(F)cc5[nH]c4=O)nn3)ccc21)N1CCNCC1 [A139, 6,7-difluoro-3-{1-[1-(2-oxo-2-piperazin-1-yl-ethyl)-1H-indol-5-yl]-1H-[1,2,3]triazol-4-yl}-1H-quinolin-2-one]

IC50 (c-Kit(V654A)): 0.014 µM
IC50 (PDGFRalpha(V561D)): 0.028 µM
Compound: O=C(COc1ccc(-n2cc(-c3cc4cc(F)c(F)cc4[nH]c3=O)nn2)cc1)N1CCNCC1 [A140, 6,7-difluoro-3-{1-[4-(2-oxo-2-piperazin-1-yl-ethoxy)-phenyl]-1H-[1,2,3]triazol-4-yl}-1H-quinolin-2-one]
